{"source": "patent US4026888A", "about": "“Certain derivatives of particular 3-thiolated cephalosporins” (priority 1976, dated 1977)", "key": {"Str. pyogenes A9604": {"tested_on": "Str. pyogenes A9604", "experiment": "Antibiotic activity in nutrient broth (MIC)", "type": "cell-based", "conditions": "45% AAB + 5% serum + 50% broth, derivatives adjusted for BL-S640 content", "source_text": "(§1) Antibiotic Activity In Nutrient Broth\n* 45% AAB+ 5% serum+ 50% broth listed above.\n(§2) ** Dilution of overnight broth culture.\n(§3) Antibiotic Spectrum Nutrient Broth\n* 45% AAB + 5% serum + 50% broth\n(§4) Antibiotic Spectrum in Nutrient Broth\n*45% AAB + 5% serum + 50% broth listed above."}, "S. pyogenes A9604": {"tested_on": "S. pyogenes A9604", "experiment": "Oral PD50 in mice", "type": "in vivo", "conditions": "Streptococcus pyogenes, mice treated at 1 and 3.5 hours post-challenge", "description": "(§5) Comparative Oral PD50 Values of\n(§6) BL-S640 Derivatives in Mice\n(§7) *Mice were treated at 1 and 3.5 hours post-challenge."}, "E. coli A15119": {"tested_on": "E. coli A15119", "experiment": "Oral PD50 in mice", "type": "in vivo", "conditions": "Escherichia coli, A15119, po, 3.5 h, read-out: PD50", "description": "as §5, §6, §7"}, "P. mirabilis A9707": {"tested_on": "P. mirabilis A9707", "experiment": "Oral PD50 in mice", "type": "in vivo", "conditions": "Proteus mirabilis, mice treated at 1 and 3.5 hours post-challenge", "description": "as §5, §6, §7"}, "K. pneumoniae A9977 [1]": {"tested_on": "K. pneumoniae A9977", "experiment": "Oral PD50 in mice", "type": "in vivo", "conditions": "Klebsiella pneumoniae, A9977; oral; mice treated at 1 and 3.5 hours post-challenge; read-out: PD50", "description": "as §5, §6, §7"}, "[2]": {"experiment": "Mouse blood levels after oral administration", "type": "in vivo", "description": "Mouse Blood Levels After Oral\nAdministration Of 100 mg./kg. Body Weight\nThe compounds were prepared in\nTween - carboxymethylcellulose\nand 8 mice were used for each\nMouse Blood Levels After PO\nAdministration of 100 mg./kg. Body Weight\nThe compounds were prepared in Tween-CMC. BL-S640\nThe compounds were prepared in Tween-CMC. Values are the average of two"}, "S. aureus Smith A9537": {"tested_on": "S. aureus Smith A9537", "experiment": "Antibiotic activity in nutrient broth (MIC)", "type": "cell-based", "conditions": "+ 50% serum, derivatives adjusted for BL-S640 content", "source_text": "as §1, §2, §3, §4"}, "Ent. cloacae A9657": {"tested_on": "Ent. cloacae A9657", "experiment": "Antibiotic activity in nutrient broth (MIC)", "type": "cell-based", "conditions": "derivatives adjusted for BL-S640 content", "source_text": "as §1, §2, §3, §4"}, "Sal. enteritidis A9531": {"tested_on": "Sal. enteritidis A9531", "experiment": "Antibiotic activity in nutrient broth (MIC)", "type": "cell-based", "conditions": "inoculum 10^-4, derivatives adjusted for BL-S640 content", "source_text": "as §1, §2, §3, §4"}, "S. aureus BX1633 A9606": {"tested_on": "S. aureus BX1633 A9606", "experiment": "Antibiotic activity in nutrient broth (MIC)", "type": "cell-based", "conditions": "derivatives adjusted for BL-S640 content", "source_text": "as §1, §2, §3, §4"}, "Pr. mirabilis A9900": {"tested_on": "Pr. mirabilis A9900", "experiment": "Antibiotic activity in nutrient broth (MIC)", "type": "cell-based", "conditions": "Proteus mirabilis, inoculum 10^-4, derivatives adjusted for BL-S640 content", "source_text": "as §1, §2, §3, §4"}, "K. pneumoniae A15130": {"tested_on": "K. pneumoniae A15130", "experiment": "Antibiotic activity in nutrient broth (MIC)", "type": "cell-based", "conditions": "derivatives adjusted for BL-S640 content", "source_text": "as §1, §2, §3, §4"}, "Ent. cloacae A9656": {"tested_on": "Ent. cloacae A9656", "experiment": "Antibiotic activity in nutrient broth (MIC)", "type": "cell-based", "conditions": "Enterobacter cloacae, derivatives adjusted for BL-S640 content", "source_text": "as §1, §2, §3, §4"}, "E. coli Juhl A15119": {"tested_on": "E. coli Juhl A15119", "experiment": "Antibiotic activity in nutrient broth (MIC)", "type": "cell-based", "conditions": "derivatives adjusted for BL-S640 content", "source_text": "as §1, §2, §3, §4"}, "Ser. marcescens A20019": {"tested_on": "Ser. marcescens A20019", "experiment": "Antibiotic activity in nutrient broth (MIC)", "type": "cell-based", "conditions": "Serratia marcescens, derivatives adjusted for BL-S640 content", "source_text": "as §1, §2, §3, §4"}, "Ent. cloacae A9659": {"tested_on": "Ent. cloacae A9659", "experiment": "Antibiotic activity in nutrient broth (MIC)", "type": "cell-based", "conditions": "derivatives adjusted for BL-S640 content", "source_text": "as §1, §2, §3, §4"}, "Ps. aeruginosa A9843A": {"tested_on": "Ps. aeruginosa A9843A", "experiment": "Antibiotic activity in nutrient broth (MIC)", "type": "cell-based", "conditions": "Pseudomonas aeruginosa", "source_text": "as §1, §2, §3, §4"}, "K. pneumoniae A9977 [3]": {"tested_on": "K. pneumoniae A9977", "experiment": "Antibiotic activity in nutrient broth (MIC)", "type": "cell-based", "conditions": "Klebsiella pneumoniae, inoculum 10^-4, derivatives adjusted for BL-S640 content, read-out: MIC", "source_text": "as §1, §2, §3, §4"}, "P. mirabilis A9900 [4]": {"tested_on": "P. mirabilis A9900", "experiment": "IM PD50 in mice", "type": "in vivo", "conditions": "Proteus mirabilis", "source_text": "Comparative IM PD50 Values of\nas §6"}, "P. mirabilis A9900 [5]": {"tested_on": "P. mirabilis A9900", "experiment": "Oral PD50 in mice", "type": "in vivo", "conditions": "oral, mice treated at 1 and 3.5 hours post-challenge"}}, "note": "Where two headings read alike, the source gives them in different places.", "data": [{"smiles": "N[C@@H](C(=O)N[C@@H]1C(=O)N2C(C(=O)O)=C(CSc3cnn[nH]3)CS[C@H]12)c1ccc(O)cc1", "note": "[BL-S640, 7-[D-α-amino-α-(p-hydroxyphenyl)acetamido]-3-(1,2,3-triazol-5-ylthiomethyl)-3-cephem-4-carboxylic acid, reference compound]", "values": [{"measurement": "MIC", "setting": "Str. pyogenes A9604; Streptococcus pyogenes, A9604, inoculum 10^-3, read-out: MIC", "value": 0.06, "unit": "µg/mL"}, {"measurement": "MIC", "setting": "Str. pyogenes A9604; inoculum 10^-3", "value": 0.03, "unit": "µg/mL"}, {"measurement": "ED50", "setting": "S. pyogenes A9604", "value": 0.4, "unit": "mg/kg"}, {"measurement": "ED50", "setting": "E. coli A15119; oral, mice treated at 1 and 3.5 hours post-challenge", "value": 4.1, "unit": "mg/kg"}, {"measurement": "ED50", "setting": "E. coli A15119", "value": 1.4, "unit": "mg/kg"}, {"measurement": "ED50", "setting": "P. mirabilis A9707", "value": 2.4, "unit": "mg/kg"}, {"measurement": "ED50", "setting": "K. pneumoniae A9977 [1]", "value": 1.6, "unit": "mg/kg"}, {"measurement": "Blood Levels", "setting": "[2]; Example 3, PO 100 mg./kg., 1 hr, Tween-CMC, average of two experiments", "value": 42400, "unit": "ng/mL"}, {"measurement": "Blood Level", "setting": "[2]; Table II, oral 100 mg./kg., 0.5 hr, Tween-carboxymethylcellulose, 8 mice, 100 mg/kg, 30 min", "value": 57400, "unit": "ng/mL"}, {"measurement": "Blood Level", "setting": "[2]; Table II, oral 100 mg./kg., 1 hr, Tween-carboxymethylcellulose, 8 mice, 100 mg/kg, 60 min", "value": 47000, "unit": "ng/mL"}, {"measurement": "Blood Level", "setting": "[2]; Table II, oral 100 mg./kg., 2 hr, Tween-carboxymethylcellulose, 8 mice, 100 mg/kg, 120 min", "value": 29500, "unit": "ng/mL"}, {"measurement": "Blood Level", "setting": "[2]; Table II, oral 100 mg./kg., 3.5 hr, Tween-carboxymethylcellulose, 8 mice, 100 mg/kg, 210 min", "value": 10900, "unit": "ng/mL"}, {"measurement": "concentration at 0.5 h", "setting": "[2]; mouse, blood, po, 100 mg/kg, Example 3, PO 100 mg./kg., 0.5 hr, Tween-CMC, average of two experiments, read-out: Blood Levels", "value": 48700, "unit": "ng/mL"}, {"measurement": "concentration at 2 h", "setting": "[2]; mouse, blood, po, 100 mg/kg, Example 3, PO 100 mg./kg., 2 hr, Tween-CMC, average of two experiments, read-out: Blood Levels", "value": 24000, "unit": "ng/mL"}, {"measurement": "concentration at 3.5 h", "setting": "[2]; mouse, blood, po, 100 mg/kg, Example 3, PO 100 mg./kg., 3.5 hr, Tween-CMC, average of two experiments, read-out: Blood Levels", "value": 10100, "unit": "ng/mL"}, {"measurement": "concentration at 0.5 h", "setting": "[2]; mouse, blood, po, 100 mg/kg, Table II, oral 100 mg./kg., 0.5 hr, Tween-carboxymethylcellulose, 8 mice, read-out: Blood Level", "value": 50500, "unit": "ng/mL"}, {"measurement": "concentration at 1 h", "setting": "[2]; mouse, blood, po, 100 mg/kg, Table II, oral 100 mg./kg., 1 hr, Tween-carboxymethylcellulose, 8 mice, read-out: Blood Level", "value": 39000, "unit": "ng/mL"}, {"measurement": "concentration at 2 h", "setting": "[2]; mouse, blood, po, 100 mg/kg, Table II, oral 100 mg./kg., 2 hr, Tween-carboxymethylcellulose, 8 mice, read-out: Blood Level", "value": 24500, "unit": "ng/mL"}, {"measurement": "concentration at 3.5 h", "setting": "[2]; mouse, blood, po, 100 mg/kg, Table II, oral 100 mg./kg., 3.5 hr, Tween-carboxymethylcellulose, 8 mice, read-out: Blood Level", "value": 9600, "unit": "ng/mL"}, {"measurement": "MIC", "setting": "S. aureus Smith A9537; Staphylococcus aureus, SMITHA9537, inoculum 10^-4, read-out: MIC", "value": 4, "unit": "µg/mL"}, {"measurement": "MIC", "setting": "S. aureus Smith A9537; inoculum 10^-4", "value": 2, "unit": "µg/mL"}, {"measurement": "MIC", "setting": "Ent. cloacae A9657; Enterobacter cloacae, A9657, inoculum 10^-4, read-out: MIC", "value": 1, "unit": "µg/mL"}, {"measurement": "MIC", "setting": "Ent. cloacae A9657; inoculum 10^-4", "value": 0.5, "unit": "µg/mL"}, {"measurement": "MIC", "setting": "Sal. enteritidis A9531; Salmonella enterica, ENTERITIDIS, read-out: MIC", "value": 0.25, "unit": "µg/mL"}, {"measurement": "MIC", "setting": "Sal. enteritidis A9531", "value": 0.13, "unit": "µg/mL"}, {"measurement": "MIC", "setting": "S. aureus BX1633 A9606; Staphylococcus aureus, BX1633A9606, inoculum 10^-2, read-out: MIC", "value": 4, "unit": "µg/mL"}, {"measurement": "MIC", "setting": "S. aureus BX1633 A9606; inoculum 10^-2", "value": 2, "unit": "µg/mL"}, {"measurement": "MIC", "setting": "Pr. mirabilis A9900", "value": 0.5, "unit": "µg/mL"}, {"measurement": "MIC", "setting": "K. pneumoniae A15130; Klebsiella pneumoniae, A15130, inoculum 10^-4, read-out: MIC", "value": 2, "unit": "µg/mL"}, {"measurement": "MIC", "setting": "K. pneumoniae A15130; inoculum 10^-4", "value": 1, "unit": "µg/mL"}, {"measurement": "MIC", "setting": "Ent. cloacae A9656; A9656, inoculum 10^-4", "value": "> 125", "unit": "µg/mL"}, {"measurement": "MIC", "setting": "Ent. cloacae A9656; A9656, inoculum 10^-4, read-out: MIC", "value": 63, "unit": "µg/mL"}, {"measurement": "MIC", "setting": "E. coli Juhl A15119; Escherichia coli, JUHLA15119, inoculum 10^-4, read-out: MIC", "value": 1, "unit": "µg/mL"}, {"measurement": "MIC", "setting": "E. coli Juhl A15119; inoculum 10^-4", "value": 0.5, "unit": "µg/mL"}, {"measurement": "MIC", "setting": "Ser. marcescens A20019; A20019, inoculum 10^-4", "value": "> 125", "unit": "µg/mL"}, {"measurement": "MIC", "setting": "Ser. marcescens A20019; A20019, inoculum 10^-4, read-out: MIC", "value": 63, "unit": "µg/mL"}, {"measurement": "MIC", "setting": "Ent. cloacae A9659; Enterobacter cloacae, A9659, inoculum 10^-4, read-out: MIC", "value": 63, "unit": "µg/mL"}, {"measurement": "MIC", "setting": "Ent. cloacae A9659; inoculum 10^-4", "value": 32, "unit": "µg/mL"}, {"measurement": "MIC", "setting": "Ps. aeruginosa A9843A", "value": "> 125", "unit": "µg/mL"}, {"measurement": "MIC", "setting": "K. pneumoniae A9977 [3]", "value": 0.5, "unit": "µg/mL"}, {"measurement": "ED50", "setting": "P. mirabilis A9900 [4]", "value": 1.6, "unit": "mg/kg"}, {"measurement": "ED50", "setting": "P. mirabilis A9900 [5]; Proteus mirabilis, A9900, po, 3.5 h, read-out: PD50", "value": 7.2, "unit": "mg/kg"}, {"measurement": "PD50", "setting": "P. mirabilis A9900 [5]", "value": 9.6, "unit": "mg./kg./treatment"}]}]}
